Measurements: patent US20200354426A1 (MEDIMMUNE LIMITED, priority 2016, published 2020)
Numbered stars: 1 amine (or outer) side, 2 acyl side, 3 side chain; on linkers, the order of the positions; unused ones are H or OH. Side chains are listed from the residue outwards. Peptide text beside a SMILES is read from it. * marks the point of attachment. γGlu = O=C(O)[C@H](CCC(=O)[*:2])N[*:1]; Palmitoyl = CCCCCCCCCCCCCCCC(=O)*; Ahx = NCCCCCC(=O)O

How the values were obtained:
Experiment in all cases: cAMP activity assay in assay medium (assay 1)
Type in all cases: cell-based
Human GLP1R = Human GLP1R (Homo sapiens, UniProt P43220); design: expressed in transfected cells; details: assay medium; Table 4; read-out: hGLP1R EC50
Sequence of Human GLP1R (P43220 24-463): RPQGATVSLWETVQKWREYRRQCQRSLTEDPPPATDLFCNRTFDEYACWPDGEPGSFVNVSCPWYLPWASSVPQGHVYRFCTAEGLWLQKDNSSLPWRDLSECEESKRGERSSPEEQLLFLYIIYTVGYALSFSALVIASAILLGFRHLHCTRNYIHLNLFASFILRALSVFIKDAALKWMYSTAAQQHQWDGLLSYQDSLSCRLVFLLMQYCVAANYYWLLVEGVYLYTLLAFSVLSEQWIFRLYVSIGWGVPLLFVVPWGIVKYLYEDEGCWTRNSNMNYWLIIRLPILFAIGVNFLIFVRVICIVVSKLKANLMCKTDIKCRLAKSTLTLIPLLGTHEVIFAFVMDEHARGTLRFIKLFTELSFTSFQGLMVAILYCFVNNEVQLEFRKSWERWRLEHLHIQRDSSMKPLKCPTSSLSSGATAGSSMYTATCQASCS
Text: (§1) Biological Activity of Peptides in Cell-Based cAMP Activity Assay (Assay 1):
(§2) All sample dilutions were made in duplicate.

Human GlucR = target: T1, Human GlucR (Homo sapiens, UniProt P47871); details: assay medium; Table 4; read-out: hGlucR EC50
T1 construct: expressed in transfected cells
T1 sequence (P47871 26-477): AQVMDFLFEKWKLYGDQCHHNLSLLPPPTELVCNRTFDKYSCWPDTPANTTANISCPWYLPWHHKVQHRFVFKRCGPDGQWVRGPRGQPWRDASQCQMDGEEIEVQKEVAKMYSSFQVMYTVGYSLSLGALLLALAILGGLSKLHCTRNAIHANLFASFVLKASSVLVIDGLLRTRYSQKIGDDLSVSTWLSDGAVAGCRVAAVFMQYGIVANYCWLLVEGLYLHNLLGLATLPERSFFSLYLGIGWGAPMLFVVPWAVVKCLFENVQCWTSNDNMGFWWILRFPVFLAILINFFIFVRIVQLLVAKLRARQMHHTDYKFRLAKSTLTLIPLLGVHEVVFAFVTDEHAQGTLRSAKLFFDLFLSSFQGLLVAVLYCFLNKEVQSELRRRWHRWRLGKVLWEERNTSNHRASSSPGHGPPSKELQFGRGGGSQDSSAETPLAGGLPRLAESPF
Text: as §1, §2

Human GIPr = target: T2, Human GIPr (Homo sapiens, UniProt P48546); details: assay medium; Table 4; read-out: hGIPR EC50
T2 construct: expressed in transfected cells
T2 sequence (P48546 22-466): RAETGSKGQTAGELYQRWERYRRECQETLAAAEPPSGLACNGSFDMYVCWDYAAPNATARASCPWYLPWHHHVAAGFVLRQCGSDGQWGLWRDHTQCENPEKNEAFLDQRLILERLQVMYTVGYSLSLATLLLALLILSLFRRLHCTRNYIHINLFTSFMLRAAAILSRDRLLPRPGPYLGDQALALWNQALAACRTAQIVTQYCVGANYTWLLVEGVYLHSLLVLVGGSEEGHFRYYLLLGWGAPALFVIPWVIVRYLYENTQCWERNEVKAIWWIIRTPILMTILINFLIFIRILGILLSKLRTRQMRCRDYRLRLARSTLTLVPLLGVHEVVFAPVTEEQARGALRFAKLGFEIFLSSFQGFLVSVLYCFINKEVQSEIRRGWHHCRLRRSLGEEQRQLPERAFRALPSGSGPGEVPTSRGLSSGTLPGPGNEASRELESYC
Text: as §1, §2

| SMILES | EC50 (Human GLP1R) | EC50 (Human GlucR) | EC50 (Human GIPr) |
| --- | --- | --- | --- |
| CCCCCCCCCCCCCCCC(=O)N[C@@H](CCC(=O)NCCCC[C@H](NC(=O)CNC(=O)CNC(=O)[C@H](C)NC(=O)[C@H](CCC(=O)O)NC(=O)[C@H](CC(C)C)NC(=O)[C@H](Cc1c[nH]c2ccccc12)NC(=O)[C@H](CCC(N)=O)NC(=O)[C@@H](NC(=O)[C@H](Cc1ccccc1)NC(=O)[C@H](CC(=O)O)NC(=O)[C@H](CCC(N)=O)NC(=O)[C@H](C)NC(=O)[C@H](CCCNC(=N)N)NC(=O)[C@H](CCCNC(=N)N)NC(=O)[C@H](CO)NC(=O)[C@H](CC(=O)O)NC(=O)[C@H](CC(C)C)NC(=O)[C@H](Cc1ccc(O)cc1)NC(=O)[C@H](CCCCN)NC(=O)[C@H](CO)NC(=O)[C@H](Cc1ccc(O)cc1)NC(=O)[C@H](CC(=O)O)NC(=O)[C@H](CO)NC(=O)[C@@H](NC(=O)[C@H](Cc1ccccc1)NC(=O)[C@@H](NC(=O)CNC(=O)[C@H](CCC(N)=O)NC(=O)[C@H](CO)NC(=O)[C@@H](N)Cc1c[nH]cn1)[C@@H](C)O)[C@@H](C)O)C(C)C)C(N)=O)C(=O)O [g747] | 3.16 nM | 0.0942 nM | 1040 nM |
| CCCCCCCCCCCCCCCC(=O)N[C@@H](CCC(=O)NCCCC[C@H](NC(=O)[C@H](CO)NC(=O)[C@H](CC(=O)O)NC(=O)[C@H](CC(C)C)NC(=O)[C@H](Cc1ccc(O)cc1)NC(=O)[C@H](CCCCN)NC(=O)[C@H](CO)NC(=O)[C@H](Cc1ccc(O)cc1)NC(=O)[C@H](CC(=O)O)NC(=O)[C@H](CO)NC(=O)[C@@H](NC(=O)[C@H](Cc1ccccc1)NC(=O)[C@@H](NC(=O)CNC(=O)[C@H](CCC(N)=O)NC(=O)[C@H](CO)NC(=O)[C@@H](N)Cc1c[nH]cn1)[C@@H](C)O)[C@@H](C)O)C(=O)N[C@@H](CCCNC(=N)N)C(=O)N[C@@H](C)C(=O)N[C@@H](CCCNC(=N)N)C(=O)N[C@@H](CC(=O)O)C(=O)N[C@@H](Cc1ccccc1)C(=O)N[C@H](C(=O)N[C@@H](CCC(=O)O)C(=O)N[C@@H](Cc1c[nH]c2ccccc12)C(=O)N[C@@H](CC(C)C)C(=O)N[C@H](C(=O)N[C@@H](C)C(=O)NCC(=O)NCC(N)=O)C(C)C)C(C)C)C(=O)O [g766] (H-HSQGTFTSDYSKYLDSK([γGlu-Palmitoyl])RARDFVEWLVAGG-NH2; N-terminus assumed) | 0.0702 nM | 0.00465 nM | 47.9 nM |
| CCCCCCCCCCCCCCCC(=O)NCCCCCC(=O)NCCCC[C@H](NC(=O)[C@H](CO)NC(=O)[C@H](CC(=O)O)NC(=O)[C@H](CC(C)C)NC(=O)[C@H](Cc1ccc(O)cc1)NC(=O)[C@H](CCC(=O)O)NC(=O)[C@H](CO)NC(=O)[C@H](Cc1ccc(O)cc1)NC(=O)[C@H](CC(=O)O)NC(=O)[C@H](CO)NC(=O)[C@@H](NC(=O)[C@H](Cc1ccccc1)NC(=O)[C@@H](NC(=O)CNC(=O)[C@H](CCC(N)=O)NC(=O)[C@H](CO)NC(=O)[C@@H](N)Cc1c[nH]cn1)[C@@H](C)O)[C@@H](C)O)C(=O)N[C@@H](CCCNC(=N)N)C(=O)N[C@@H](C)C(=O)N[C@@H](CCCNC(=N)N)C(=O)N[C@@H](CC(=O)O)C(=O)N[C@@H](Cc1ccccc1)C(=O)N[C@H](C(=O)N[C@@H](CCC(=O)O)C(=O)N[C@@H](Cc1c[nH]c2ccccc12)C(=O)N[C@@H](CC(C)C)C(=O)N[C@@H](CCC(=O)O)C(=O)N[C@@H](CCCNC(=N)N)C(=O)NCC(=O)NCC(N)=O)C(C)C [g771] (H-HSQGTFTSDYSEYLDSK([Ahx-Palmitoyl])RARDFVEWLERGG-NH2; N-terminus assumed) | 0.0175 nM | 0.00551 nM | 37.1 nM |
| CCCCCCCCCCCCCCCC(=O)N[C@@H](CCC(=O)NCCCC[C@H](NC(=O)[C@H](CO)NC(=O)[C@H](CC(=O)O)NC(=O)[C@H](CC(C)C)NC(=O)[C@H](Cc1ccc(O)cc1)NC(=O)[C@H](CCC(=O)O)NC(=O)[C@H](CO)NC(=O)[C@H](Cc1ccc(O)cc1)NC(=O)[C@H](CC(=O)O)NC(=O)[C@H](CO)NC(=O)[C@@H](NC(=O)[C@H](Cc1ccccc1)NC(=O)[C@@H](NC(=O)CNC(=O)[C@H](CCC(N)=O)NC(=O)[C@H](CO)NC(=O)[C@@H](N)Cc1c[nH]cn1)[C@@H](C)O)[C@@H](C)O)C(=O)N[C@@H](CCCNC(=N)N)C(=O)N[C@@H](C)C(=O)N[C@@H](CCCNC(=N)N)C(=O)N[C@@H](CC(=O)O)C(=O)N[C@@H](Cc1ccccc1)C(=O)N[C@H](C(=O)N[C@@H](C)C(=O)N[C@@H](Cc1c[nH]c2ccccc12)C(=O)N[C@@H](CC(C)C)C(=O)N[C@@H](CCC(=O)O)C(=O)N[C@@H](CCCNC(=N)N)C(=O)NCC(=O)NCC(N)=O)C(C)C)C(=O)O [g772] (H-HSQGTFTSDYSEYLDSK([γGlu-Palmitoyl])RARDFVAWLERGG-NH2; N-terminus assumed) | 0.292 nM | 0.184 nM | 1540 nM |
| CCCCCCCCCCCCCCCC(=O)N[C@@H](CCC(=O)NCCCC[C@H](NC(=O)[C@H](Cc1ccc(O)cc1)NC(=O)[C@H](CCCCN)NC(=O)[C@H](CO)NC(=O)[C@H](Cc1ccc(O)cc1)NC(=O)[C@H](CC(=O)O)NC(=O)[C@H](CO)NC(=O)[C@@H](NC(=O)[C@H](Cc1ccccc1)NC(=O)[C@@H](NC(=O)CNC(=O)[C@H](CCC(N)=O)NC(=O)[C@H](CO)NC(=O)[C@@H](N)Cc1c[nH]cn1)[C@@H](C)O)[C@@H](C)O)C(=O)N[C@@H](CC(=O)O)C(=O)N[C@@H](CO)C(=O)N[C@@H](CCC(=O)O)C(=O)N[C@@H](CCCNC(=N)N)C(=O)N[C@@H](C)C(=O)N[C@@H](CCCNC(=N)N)C(=O)N[C@@H](CC(=O)O)C(=O)N[C@@H](Cc1ccccc1)C(=O)N[C@H](C(=O)N[C@@H](C)C(=O)N[C@@H](Cc1c[nH]c2ccccc12)C(=O)N[C@@H](CC(C)C)C(=O)N[C@H](C(=O)N[C@@H](C)C(=O)NCC(=O)NCC(N)=O)C(C)C)C(C)C)C(=O)O [g777] (H-HSQGTFTSDYSKYK([γGlu-Palmitoyl])DSERARDFVAWLVAGG-NH2; N-terminus assumed) | 0.0274 nM | 0.00124 nM | 4.53 nM |
| CCCCCCCCCCCCCCCC(=O)N[C@@H](CCC(=O)NCCCC[C@H](NC(=O)[C@H](CC(=O)O)NC(=O)[C@H](CC(C)C)NC(=O)[C@H](Cc1ccc(O)cc1)NC(=O)[C@H](CCCCN)NC(=O)[C@H](CO)NC(=O)[C@H](Cc1ccc(O)cc1)NC(=O)[C@H](CC(=O)O)NC(=O)[C@H](CO)NC(=O)[C@@H](NC(=O)[C@H](Cc1ccccc1)NC(=O)[C@@H](NC(=O)CNC(=O)[C@H](CCC(N)=O)NC(=O)[C@H](CO)NC(=O)[C@@H](N)Cc1c[nH]cn1)[C@@H](C)O)[C@@H](C)O)C(=O)N[C@@H](CCCNC(=N)N)C(=O)N[C@@H](CCCNC(=N)N)C(=O)N[C@@H](C)C(=O)N[C@@H](CCCNC(=N)N)C(=O)N[C@@H](CC(=O)O)C(=O)N[C@@H](Cc1ccccc1)C(=O)N[C@H](C(=O)N[C@@H](C)C(=O)N[C@@H](Cc1c[nH]c2ccccc12)C(=O)N[C@@H](CC(C)C)C(=O)N[C@@H](CCC(=O)O)C(=O)N[C@@H](C)C(=O)NCC(=O)NCC(N)=O)C(C)C)C(=O)O [g781] (H-HSQGTFTSDYSKYLDK([γGlu-Palmitoyl])RRARDFVAWLEAGG-NH2; N-terminus assumed) | 0.104 nM | 0.00285 nM | 402 nM |
